Results published in article PMC4038645 (Cancer, 2014).
Like-named read-outs stand apart in the source and are kept apart here. Marks after values point to notes of the source that are not given here.

Tests used:
[1] = Plasma pharmacokinetics of sunitinib and N-desethyl sunitinib; format: in vivo, human; conditions: for half-life: n=1
ABCG2 = conditions: cited from earlier work
ABCB1 = conditions: cited from earlier work
[2] = phase III trial, 50mg/day, cited from earlier work
[3] = tested on: solid or hematologic malignancy; experiment: Response assessment after every two cycles; format: in vivo, human; conditions: 17 patients evaluable for response
CYP3A4 = conditions: cited from earlier work
[4] = human, in vivo, 6 weeks (cycle 1)

Structure (SMILES): CCNCCNC(=O)c1c(C)[nH]c(/C=C2\C(=O)Nc3ccc(F)cc32)c1C [N-desethyl sunitinib]
- decrease in AUC0–24h compared to NNRTI ([1]; human, in vivo): 40%
- decrease in Cmax compared to NNRTI ([1]; human, in vivo): 48%
- increase in AUC0–24h compared to NNRTI ([1]; human, in vivo): 390%
- increase in Cmax compared to NNRTI ([1]; human, in vivo): 410%
- substrate for ABCG2 drug transporter (ABCG2): substrates
- substrate for ABCB1 drug transporter (ABCB1): substrates

Structure (SMILES): CCN(CC)CCNC(=O)c1c(C)[nH]c(/C=C2\C(=O)Nc3ccc(F)cc32)c1C [sunitinib, Sunitinib malate]
- rate of grade 3 or 4 neutropenia ([2]; gastrointestinal stromal tumors): 10%
- rate of grade 3 or 4 neutropenia ([2]; primitive neuroectodermal tumors): 16%
- rate of grade 3 or 4 neutropenia ([2]; renal cell carcinoma): 17%
- correlation between hand-foot syndrome and elevated Cmin,ss ([1]; Mann–Whitney U-test, p=0.013): There was a correlation
- Cmax ([1]; Ritonavir group, sunitinib 37.5 mg/day, Cycle 1 Day 1, mean±SD): 19.9±5.9 (6) ng/mL
- T1/2 ([1]; Ritonavir group, sunitinib 37.5 mg/day, actual values (n=2)): 86.8 h
- AUC(0-t) ([1]; human, in vivo, 37.5 mg/day): 338 ± 99 ng·h/mL
- fraction unbound ([1]; human, in vivo, 37.5 mg/day): 0.067 ± 0.021
- half-life ([1]; human, plasma, oral, 25 mg/day, T1/2, Ritonavir group, sunitinib 25 mg/day): 66 h
- Tmax ([1]; human, plasma, oral, 50 mg/day): 7.5 h
- half-life ([1]; human, plasma, oral, 50 mg/day, T1/2, NNRTI group, sunitinib 50 mg/day): 63.6 h
- ALT/AST Elevation All Grade (%) (human, in vivo): 2 (11)
- ALT/AST Elevation ≥G3 (%) (human, in vivo): 0 (0)
- Abdominal Pain All Grade (%) (human, in vivo): 2 (11)
- Abdominal Pain ≥G3 (%) (human, in vivo): 0 (0)
- Anemia All Grade (%) (human, in vivo): 3 (16)
- Anemia ≥G3 (%) (human, in vivo): 1 (5)
- Anorexia ≥G3 (%) (human, in vivo): 0 (0)
- Constipation All Grade (%) (human, in vivo): 2 (11)
- Constipation ≥G3 (%) (human, in vivo): 0 (0)
- Cough ≥G3 (%) (human, in vivo): 0 (0)
- Diarrhea All Grade (%) (human, in vivo): 9 (47)
- Diarrhea ≥G3 (%) (human, in vivo): 1 (5)
- Epistaxis ≥G3 (%) (human, in vivo): 0 (0)
- Fatigue All Grade (%) (human, in vivo): 8 (42)
- Fatigue ≥G3 (%) (human, in vivo): 0 (0)
- Headache All Grade (%) (human, in vivo): 2 (11)
- Headache ≥G3 (%) (human, in vivo): 0 (0)
- Hypertension All Grade (%) (human, in vivo): 4 (21)
- Hypertension ≥G3 (%) (human, in vivo): 0 (0)
- Hypopigmentation All Grade (%) (human, in vivo): 2 (11)
- Hypopigmentation ≥G3 (%) (human, in vivo): 0 (0)
- Mucositis All Grade (%) (human, in vivo): 3 (16)
- Mucositis ≥G3 (%) (human, in vivo): 0 (0)
- Myalgia/Limb Pain All Grade (%) (human, in vivo): 2 (11)
- Myalgia/Limb Pain ≥G3 (%) (human, in vivo): 0 (0)
- Nausea/Vomiting All Grade (%) (human, in vivo): 6 (32)
- Nausea/Vomiting ≥G3 (%) (human, in vivo): 0 (0)
- Neutropenia All Grade (%) (human, in vivo): 10 (53)
- Neutropenia ≥G3 (%) (human, in vivo): 6 (32)
- Rash ≥G3 (%) (human, in vivo): 0 (0)
- Thrombocytopenia All Grade (%) (human, in vivo): 3 (16)
- Thrombocytopenia ≥G3 (%) (human, in vivo): 0 (0)
- Wound Dehiscence All Grade (%) (human, in vivo): 2 (11)
- Wound Dehiscence ≥G3 (%) (human, in vivo): 1 (5)
- ALT/AST Elevation All Grade (%) (human, in vivo, 6 weeks): 2 (11)
- ALT/AST Elevation ≥G3 (%) (human, in vivo, 6 weeks): 0 (0)
- Constipation All Grade (%) (human, in vivo, 6 weeks): 1 (5)
- Constipation ≥G3 (%) (human, in vivo, 6 weeks): 0 (0)
- Diarrhea All Grade (%) (human, in vivo, 6 weeks): 8 (42)
- Diarrhea ≥G3 (%) (human, in vivo, 6 weeks): 0 (0)
- Fatigue All Grade (%) (human, in vivo, 6 weeks): 7 (37)
- Fatigue ≥G3 (%) (human, in vivo, 6 weeks): 0 (0)
- Hypertension All Grade (%) (human, in vivo, 6 weeks): 3 (16)
- Hypertension ≥G3 (%) (human, in vivo, 6 weeks): 0 (0)
- Mucositis All Grade (%) (human, in vivo, 6 weeks): 2 (11)
- Mucositis ≥G3 (%) (human, in vivo, 6 weeks): 0 (0)
- Nausea/Vomiting All Grade (%) (human, in vivo, 6 weeks): 3 (16)
- Nausea/Vomiting ≥G3 (%) (human, in vivo, 6 weeks): 0 (0)
- Anemia All Grade (%) [4]: 2 (11)
- Anemia ≥G3 (%) [4]: 1 (5)
- Neutropenia All Grade (%) [4]: 10 (53)
- Neutropenia ≥G3 (%) [4]: 5 (26)
- Thrombocytopenia All Grade (%) [4]: 2 (11)
- Thrombocytopenia ≥G3 (%) [4]: 0 (0)
- Wound Dehiscence All Grade (%) [4]: 2 (11)
- Wound Dehiscence ≥G3 (%) [4]: 1 (5) ^#
- recommended dose (patients on ritonavir, 4 week on/2 week off schedule): 37.5 mg/day
- MTD (patients on ritonavir, daily, 4 weeks on/2 weeks off): 37.5 mg
- objective response to therapy [3]: No patient experienced an objective response
- substrate for ABCG2 drug transporter (ABCG2): substrates
- substrate for ABCB1 drug transporter (ABCB1): substrates

Structure (SMILES): O=C1Nc2ccc(Cl)cc2[C@@](C#CC2CC2)(C(F)(F)F)O1 [efavirenz]
- induction of CYP3A4 (CYP3A4): known inducer
